Values of other authors as cited in patent publication US10577339B2, “Method for manufacturing furan-2,5-dicarboxylic acid (FDCA) from a salt solution” (PURAC BIOCHEM BV, priority 2015, dated 2020).

Conditions: at 40° C.

In the case of `O=S(=O)([O-])[O-].[Na+].[Na+]` [Na2SO4, sodium sulphate], the saturation concentration is given as 32.8%.
